Assay results as given in ChEMBL document CHEMBL3885881, “DrugMatrix”.

Organism: Rattus norvegicus
Experiment: DrugMatrix - Regimen: Daily Repeat
Type: toxicity, organism-based, Sprague-Dawley
Set-up: regimen Daily Repeat, gender Male, age 6-8 weeks
Conditions: in vivo, po, route oral GAVAGE, vehicle .5 % CMC; for ABSOLUTE BASOPHIL / ABSOLUTE EOSINOPHIL / ABSOLUTE LYMPHOCYTE / ABSOLUTE MONOCYTE / ABSOLUTE SEGMENTED NEUTROPHIL / BASOPHIL / EOSINOPHIL / ERYTHROCYTE COUNT / HEMATOCRIT / HEMOGLOBIN / LEUKOCYTE COUNT / LYMPHOCYTE / MEAN CORPUSCULAR HEMOGLOBIN / MEAN CORPUSCULAR HEMOGLOBIN CONCENTRATION / MEAN CORPUSCULAR VOLUME / MONOCYTE / NEUTROPHIL / NUCLEATED RED BLOOD CELLS / PLATELET COUNT: tissue Blood; for ALANINE AMINOTRANSFERASE / ALBUMIN / ALKALINE PHOSPHATASE / ASPARTATE AMINOTRANSFERASE / BLOOD UREA NITROGEN / CARBON DIOXIDE / CHLORIDE / CHOLESTEROL / CREATINE PHOSPHOKINASE / CREATININE / GLUCOSE / LACTATE DEHYDROGENASE / LIPASE / PHOSPHORUS / POTASSIUM / SODIUM / TOTAL BILIRUBIN / TOTAL PROTEIN / URIC ACID: tissue Plasma
[1] = 500 mg/kg, 72 h, dose level Low, time 3 day
[2] = 500 mg/kg, 120 h, dose level Low, time 5 day
[3] = 2000 mg/kg, 72 h, dose level High, time 3 day
[4] = 2000 mg/kg, 120 h, dose level High, time 5 day

NC[C@H]1CC[C@H](C(=O)O)CC1 [TRANEXAMIC ACID]
ABSOLUTE BASOPHIL [1]: 0 CELLS/uL | ABSOLUTE EOSINOPHIL [1]: 94.67 CELLS/uL | ABSOLUTE LYMPHOCYTE [1]: 11832.33 CELLS/uL | ABSOLUTE MONOCYTE [1]: 147 CELLS/uL | ABSOLUTE SEGMENTED NEUTROPHIL [1]: 2626 CELLS/uL | BASOPHIL [1]: 0% | EOSINOPHIL [1]: 0.67% | ERYTHROCYTE COUNT [1]: 5.82 x10E6/uL | HEMATOCRIT [1]: 36.4% | HEMOGLOBIN [1]: 14.33 G/DL | LEUKOCYTE COUNT [1]: 14.7 x10E3/uL | LYMPHOCYTE [1]: 80.33% | MEAN CORPUSCULAR HEMOGLOBIN [1]: 24.63 pg | MEAN CORPUSCULAR HEMOGLOBIN CONCENTRATION [1]: 39.43 G/DL | MEAN CORPUSCULAR VOLUME [1]: 62.5 fL | MONOCYTE [1]: 1% | NEUTROPHIL [1]: 18% | NUCLEATED RED BLOOD CELLS [1]: 0 /100WBC | PLATELET COUNT [1]: 1287 x10E3/uL | ALANINE AMINOTRANSFERASE [1]: 49.33 u/L | ALBUMIN [1]: 4.3 G/DL | ALKALINE PHOSPHATASE [1]: 364.33 u/L | ASPARTATE AMINOTRANSFERASE [1]: 83 u/L | BLOOD UREA NITROGEN [1]: 13.67 mg/dL | CARBON DIOXIDE [1]: 25.33 mmol/L | CHLORIDE [1]: 102 MEQ/L | CHOLESTEROL [1]: 81 mg/dL | CREATINE PHOSPHOKINASE [1]: 246 u/L | CREATININE [1]: 0.17 mg/dL | GLUCOSE [1]: 155 mg/dL | LACTATE DEHYDROGENASE [1]: 225.67 u/L | LIPASE [1]: 10 u/L | PHOSPHORUS [1]: 14.07 mg/dL | POTASSIUM [1]: 6.58 MEQ/L | SODIUM [1]: 145.07 MEQ/L | TOTAL BILIRUBIN [1]: 0.2 mg/dL | TOTAL PROTEIN [1]: 6.07 G/DL | URIC ACID [1]: 1.83 mg/dL | ABSOLUTE BASOPHIL [2]: 0 CELLS/uL | ABSOLUTE EOSINOPHIL [2]: 0 CELLS/uL | ABSOLUTE LYMPHOCYTE [2]: 10774 CELLS/uL | ABSOLUTE MONOCYTE [2]: 92 CELLS/uL | ABSOLUTE SEGMENTED NEUTROPHIL [2]: 2034 CELLS/uL | BASOPHIL [2]: 0% | EOSINOPHIL [2]: 0% | ERYTHROCYTE COUNT [2]: 5.74 x10E6/uL | HEMATOCRIT [2]: 35.7% | HEMOGLOBIN [2]: 14.13 G/DL | LEUKOCYTE COUNT [2]: 12.9 x10E3/uL | LYMPHOCYTE [2]: 83.67% | MEAN CORPUSCULAR HEMOGLOBIN [2]: 24.67 pg | MEAN CORPUSCULAR HEMOGLOBIN CONCENTRATION [2]: 39.57 G/DL | MEAN CORPUSCULAR VOLUME [2]: 62.33 fL | MONOCYTE [2]: 0.67% | NEUTROPHIL [2]: 15.67% | NUCLEATED RED BLOOD CELLS [2]: 0 /100WBC | PLATELET COUNT [2]: 1198 x10E3/uL | ALANINE AMINOTRANSFERASE [2]: 58.67 u/L | ALBUMIN [2]: 4.17 G/DL | ALKALINE PHOSPHATASE [2]: 364.67 u/L | ASPARTATE AMINOTRANSFERASE [2]: 90.67 u/L | BLOOD UREA NITROGEN [2]: 15 mg/dL | CARBON DIOXIDE [2]: 25.67 mmol/L | CHLORIDE [2]: 102 MEQ/L | CHOLESTEROL [2]: 61 mg/dL | CREATINE PHOSPHOKINASE [2]: 280.67 u/L | CREATININE [2]: 0.21 mg/dL | GLUCOSE [2]: 154 mg/dL | LACTATE DEHYDROGENASE [2]: 250.33 u/L | LIPASE [2]: 9.33 u/L | PHOSPHORUS [2]: 12.3 mg/dL | POTASSIUM [2]: 6.07 MEQ/L | SODIUM [2]: 144.43 MEQ/L | TOTAL BILIRUBIN [2]: 0.17 mg/dL | TOTAL PROTEIN [2]: 5.9 G/DL | URIC ACID [2]: 1.53 mg/dL | ABSOLUTE BASOPHIL [3]: 0 CELLS/uL | ABSOLUTE EOSINOPHIL [3]: 131 CELLS/uL | ABSOLUTE LYMPHOCYTE [3]: 11124 CELLS/uL | ABSOLUTE MONOCYTE [3]: 58.67 CELLS/uL | ABSOLUTE SEGMENTED NEUTROPHIL [3]: 1786.33 CELLS/uL | BASOPHIL [3]: 0% | EOSINOPHIL [3]: 1% | ERYTHROCYTE COUNT [3]: 5.38 x10E6/uL | HEMATOCRIT [3]: 32.57% | HEMOGLOBIN [3]: 12.97 G/DL | LEUKOCYTE COUNT [3]: 13.1 x10E3/uL | LYMPHOCYTE [3]: 84% | MEAN CORPUSCULAR HEMOGLOBIN [3]: 24.13 pg | MEAN CORPUSCULAR HEMOGLOBIN CONCENTRATION [3]: 39.83 G/DL | MEAN CORPUSCULAR VOLUME [3]: 60.57 fL | MONOCYTE [3]: 0.33% | NEUTROPHIL [3]: 14.67% | NUCLEATED RED BLOOD CELLS [3]: 0 /100WBC | PLATELET COUNT [3]: 1338.33 x10E3/uL | ALANINE AMINOTRANSFERASE [3]: 49.67 u/L | ALBUMIN [3]: 3.9 G/DL | ALKALINE PHOSPHATASE [3]: 293.67 u/L | ASPARTATE AMINOTRANSFERASE [3]: 92 u/L | BLOOD UREA NITROGEN [3]: 15.33 mg/dL | CARBON DIOXIDE [3]: 25.33 mmol/L | CHLORIDE [3]: 100 MEQ/L | CHOLESTEROL [3]: 71.33 mg/dL | CREATINE PHOSPHOKINASE [3]: 923.33 u/L | CREATININE [3]: 0.15 mg/dL | GLUCOSE [3]: 161 mg/dL | LACTATE DEHYDROGENASE [3]: 154.33 u/L | LIPASE [3]: 10.33 u/L | PHOSPHORUS [3]: 12.03 mg/dL | POTASSIUM [3]: 8.02 MEQ/L | SODIUM [3]: 142.27 MEQ/L | TOTAL BILIRUBIN [3]: 0.1 mg/dL | TOTAL PROTEIN [3]: 5.47 G/DL | URIC ACID [3]: 1.53 mg/dL | ABSOLUTE BASOPHIL [4]: 0 CELLS/uL | ABSOLUTE EOSINOPHIL [4]: 40.33 CELLS/uL | ABSOLUTE LYMPHOCYTE [4]: 11921 CELLS/uL | ABSOLUTE MONOCYTE [4]: 0 CELLS/uL | ABSOLUTE SEGMENTED NEUTROPHIL [4]: 1438.67 CELLS/uL | BASOPHIL [4]: 0% | EOSINOPHIL [4]: 0.33% | ERYTHROCYTE COUNT [4]: 5.89 x10E6/uL | HEMATOCRIT [4]: 34.97% | HEMOGLOBIN [4]: 14.13 G/DL | LEUKOCYTE COUNT [4]: 13.4 x10E3/uL | LYMPHOCYTE [4]: 89% | MEAN CORPUSCULAR HEMOGLOBIN [4]: 24.03 pg | MEAN CORPUSCULAR HEMOGLOBIN CONCENTRATION [4]: 40.43 G/DL | MEAN CORPUSCULAR VOLUME [4]: 59.4 fL | MONOCYTE [4]: 0% | NEUTROPHIL [4]: 10.67% | NUCLEATED RED BLOOD CELLS [4]: 0 /100WBC | PLATELET COUNT [4]: 1475.33 x10E3/uL | ALANINE AMINOTRANSFERASE [4]: 55 u/L | ALBUMIN [4]: 4.23 G/DL | ALKALINE PHOSPHATASE [4]: 354.33 u/L | ASPARTATE AMINOTRANSFERASE [4]: 79 u/L | BLOOD UREA NITROGEN [4]: 17.33 mg/dL | CARBON DIOXIDE [4]: 25.67 mmol/L | CHLORIDE [4]: 102 MEQ/L | CHOLESTEROL [4]: 64.67 mg/dL | CREATINE PHOSPHOKINASE [4]: 364.33 u/L | CREATININE [4]: 0.17 mg/dL | GLUCOSE [4]: 150 mg/dL | LACTATE DEHYDROGENASE [4]: 135.67 u/L | LIPASE [4]: 10 u/L | PHOSPHORUS [4]: 12.53 mg/dL | POTASSIUM [4]: 7.4 MEQ/L | SODIUM [4]: 145 MEQ/L | TOTAL BILIRUBIN [4]: 0.2 mg/dL | TOTAL PROTEIN [4]: 6.1 G/DL | URIC ACID [4]: 2.6 mg/dL
